Data taken from patent US20250034165A1, “COMPOUND CONTAINING CYCLOALKYL OR HALOALKYL” (CHIA TAI TIANQING PHARMACEUTICAL GROUP CO., LTD., priority 2021, published 2025).

How the values were obtained:
[1] = In vitro stability in liver microsomes; format: in vitro ADME; conditions: Human liver microsome
Description: 300 μL of the final incubation system contains 30 μL of liver microsomes (protein concentration: 0.15 mg/mL), 30 μL of NADPH+MgCl2, 3 μL of the test compound (in acetonitrile), and 237 μL of PBS buffer (pH 7.4). The proportion of the organic solvent (acetonitrile) was 1%. Samples were prepared in duplicate of 0.3 mL for each species (e.g., human or mouse liver microsomes). Tubes each containing 270 μL of a mixed solution of substrate and enzyme […] were pre-incubated at 37° C. for 5 min. 30 μL of NADPH+MgCl2 was added and the mixture was mixed. 50 μL of the mixture was taken at 0 min, 15 min, 30 min, and 60 min, and 300 μL of glacial acetonitrile containing an internal standard was added to terminate the reaction.
50 μL of the incubated sample was added with 300 μL of glacial acetonitrile containing an internal standard (20 ng/mL diazepam) for precipitation. The mixture was vortexed for 5 min, and centrifuged (12,000 rpm, 4° C.) for 10 min. 75 μL of supernatant was taken and diluted with 75 μL of ultrapure water. After being homogeneously mixed, 0.5 μL of the resulting sample was injected for analysis.

[2] = test system: NCI-H1975(L858R T790M); experiment: Nude mouse subcutaneous xenograft tumor model of NCI-H1975 cells; format: in vivo, nude mice; conditions: once a day; for Tumor growth inhibition % (tumor weight, d 18) / Tumor growth inhibition % (volume, d 15): 17 days
From the text: Evaluation on drug effect on nude mouse subcutaneous xenograft tumor model of NCI-H1975 cells: NCI-H1975 cells were inoculated subcutaneously in the right axilla of SPF-grade female nude mice (source: Jiangsu Huachuang Sino Pharmaceutical Technology Co., Ltd.) at 1×10^6 cells/mouse. When the mean tumor volume reached about 200 mm^3, the animals were grouped.
The day of grouping was defined as day 0, and intragastric administration was started on day 0 and performed once a day. The tumor volume was measured 2-3 times a week, meanwhile, the mice were weighed and the data were recorded; the general behavior of the mice was observed and recorded every day. After the experiment was completed, the tumors were removed, weighed, and photographed.
Tumor volume TV (mm^3)=½×(a×b^2),
Relative tumor volume RTV=TVt/TV0,
Relative tumor proliferation rate T/C (%)=(TRTV/CRTV)×100%,
Tumor growth inhibition rate TGI (%)=(1−TW/TW0)×100%;

[3] = test system: PC-9 EGFR-Del19-T790M-C797S cells; experiment: Inhibition of proliferation of PC-9-EGFR (Del19 T790M C797S) cells, CCK-8; format: cell-based; conditions: 72 h, read-out: PC-9-EGFR (Del19 T790M C797S) cell inhibitory activity IC50
How it was run: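 Cells seeded at 2×10^4 cells/mL were treated 72 h with compound at 1000 nM-0.06 nM final, in replicate wells. CCK-8 absorbance at 450 nm after 2 h gave inhibition rate relative to negative control and blank. IC50 from four-parameter fit against log concentration.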

Question: Which “Stability in liver microsomes (residual %, T = 60 min)” value [1] does the source give for `C[C@H](Nc1ccc2c(c1)N/C1=N\C(=O)c3cc(F)nc(c3)-c3cnn(C)c3OCCC[C@@H](C3CC3)CN12)C(F)(F)F` [Example 9] here?
Answer: The value was 59.54%.

Question: For `Cc1cc2cc(n1)-c1cnn(C)c1OCCC[C@@H](C1CC1)CN1/C(=N/C2=O)Nc2cc(N[C@H]3CC[C@H](N(C)C)CC3)ccc21` [Example 25], which “Stability in liver microsomes (residual %, T = 60 min)” value [1] is on record?
Answer: Its value is 103.07%.

Question: And the “Tumor growth inhibition % (tumor weight, d 18)” value ([2]; 5 mpk (i.g))?
Answer: The value was 31.4% (tumor.

Question: And the “Tumor growth inhibition % (volume, d 15)” value ([2]; 5 mpk (i.g))?
Answer: Its value is 22.5% (volume,.

Question: And the “Tumor growth inhibition % (tumor weight, d 18)” value ([2]; 10 mpk (i.g))?
Answer: Its value is 75.8% (tumor.

Question: What about the “Tumor growth inhibition % (volume, d 15)” value ([2]; 10 mpk (i.g)) of the same compound?
Answer: The value was 72.5% (volume,.

Question: What about the IC50 [3] of the same compound?
Answer: The IC50 was under 50 nM.

Question: What does the source list for `Cc1cc2cc(n1)-c1cnn(C)c1OCCC[C@@H](C1CC1)CN1/C(=N/C2=O)Nc2cc(N[C@H]3CC[C@@H](N(C)C)CC3)ccc21` [Example 26]?
Answer: Stability in liver microsomes (residual %, T = 60 min) [1]: 98.30%; IC50 [3]: < 50 nM

Question: Which IC50 [3] does the source give for `Cc1cc2cc(n1)-c1cnn(C)c1OCCC[C@@H](C1CC1)CN1/C(=N/C2=O)Nc2ccc(NCCN(C)C)cc21` [Example 28] here?
Answer: The IC50 was under 50 nM.

Question: Which “Tumor growth inhibition % (tumor weight, d 18)” value ([2]; 5 mpk (i.g)) does the source give for `Cc1cc2cc(n1)-c1cnn(C)c1OCCC[C@@H](C1CC1)CN1/C(=N/C2=O)Nc2cc(NC3(C)COC3)ccc21` [Example 29] here?
Answer: Its value is 41.7% (tumor weight,.

Question: What about the “Tumor growth inhibition % (volume, d 15)” value ([2]; 5 mpk (i.g)) of the same compound?
Answer: The value was 40.0% (volume, d 15).

Question: And the “Tumor growth inhibition % (tumor weight, d 18)” value ([2]; 10 mpk (i.g))?
Answer: The value was 83.9% (tumor.

Question: What about the “Tumor growth inhibition % (volume, d 15)” value ([2]; 10 mpk (i.g)) of the same compound?
Answer: Its value is 75.0% (volume,.

Question: What about the IC50 [3] of the same compound?
Answer: Its IC50 is under 50 nM.

Question: What does the source list for `Cc1cc2cc(n1)-c1cnn(C)c1OCCC[C@@H](C1CC1)CN1/C(=N/C2=O)Nc2cc(N[C@H](C)C3COC3)ccc21` [Example 39]?
Answer: Tumor growth inhibition % (tumor weight, d 14) ([2]; 10 mpk (i.g), 14 days): 65.1% (tumor; Tumor growth inhibition % (volume, d 12) ([2]; 10 mpk (i.g), 14 days): 70.2%; IC50 [3]: < 50 nM
